Like-named read-outs stand apart in the source and are kept apart here. Values belong to the compound of their own block, whether it stands above or below them.
Target: T1, Androgen Receptor (Homo sapiens, UniProt P10275)
T1 construct: endogenous in cells; host or cells: VCaP cells
T1 sequence (P10275 1-920): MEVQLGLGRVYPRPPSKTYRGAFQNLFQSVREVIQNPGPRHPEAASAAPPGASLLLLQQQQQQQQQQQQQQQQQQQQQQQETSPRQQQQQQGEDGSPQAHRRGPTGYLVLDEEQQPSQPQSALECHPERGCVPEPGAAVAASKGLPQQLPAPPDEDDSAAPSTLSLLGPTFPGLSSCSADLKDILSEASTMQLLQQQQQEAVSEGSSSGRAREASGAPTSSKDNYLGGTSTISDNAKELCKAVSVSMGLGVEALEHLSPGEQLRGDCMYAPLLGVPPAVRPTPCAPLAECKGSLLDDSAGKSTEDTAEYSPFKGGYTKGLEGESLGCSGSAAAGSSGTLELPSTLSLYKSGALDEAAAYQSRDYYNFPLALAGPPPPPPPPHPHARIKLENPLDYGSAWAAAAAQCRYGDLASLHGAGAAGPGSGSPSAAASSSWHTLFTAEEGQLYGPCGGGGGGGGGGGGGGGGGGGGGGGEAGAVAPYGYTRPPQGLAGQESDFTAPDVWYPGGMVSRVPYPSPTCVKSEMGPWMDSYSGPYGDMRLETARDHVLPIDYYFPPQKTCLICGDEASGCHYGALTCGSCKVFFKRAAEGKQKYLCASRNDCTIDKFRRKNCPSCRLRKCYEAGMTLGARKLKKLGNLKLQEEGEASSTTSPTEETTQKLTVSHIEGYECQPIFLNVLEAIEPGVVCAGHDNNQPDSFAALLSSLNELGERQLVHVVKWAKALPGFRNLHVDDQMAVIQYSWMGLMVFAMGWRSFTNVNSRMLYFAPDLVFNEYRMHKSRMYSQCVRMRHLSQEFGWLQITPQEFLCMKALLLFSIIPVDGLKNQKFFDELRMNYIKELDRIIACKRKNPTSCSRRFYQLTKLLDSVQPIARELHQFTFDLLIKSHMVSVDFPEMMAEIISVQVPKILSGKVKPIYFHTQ
Assay: Androgen Receptor ELISA assay (PathScan AR ELISA) in VCaP cells: AR degradation, Dmax and DC50
Format: cell-based
In short: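 After 24 h exposure of VCaP cells (charcoal-stripped serum, 0.1 nM R1881 agonist, 0.1% DMSO) to seven half-log compound concentrations, residual AR in lysates was measured by PathScan ELISA (TMB absorbance, 450 nm). Cells were plated at 30,000/well and grown at least 3 days beforehand.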

[1] = VCaP cells; Table 36; read-out: VCaP DC50
[2] = VCaP, VCaP cells; Table 36; read-out: VCaP Dmax (%)
[3] = read-out: VCaP DC50; VCaP cells; Table 36
[4] = VCaP cells; Table 35; read-out: VCaP DC50
[5] = VCaP, VCaP cells; Table 35; read-out: VCaP Dmax (%)
[6] = VCaP, highest percentage of Androgen Receptor degradation observed, VCaP cells (Table 32); read-out: VCaP Dmax (%)
[7] = concentration that caused 50% Androgen Receptor degradation, VCaP cells (Table 32); read-out: VCaP DC50

DC50 [1]: > 501 nM
Dmax [2]: < 25%
Structure (SMILES): Cc1ncsc1-c1ccc([C@H](C)NC(=O)[C@@H]2CC(F)(F)CN2C(=O)[C@@H](NC(=O)COCCN2CCN(c3ccc(C(=O)N[C@H]4C(C)(C)[C@H](Oc5ccc(C#N)c(Cl)c5)C4(C)C)cn3)CC2)C(C)(C)C)cc1 [Example 725, N-((1r,3r)-3-(3-chloro-4-cyanophenoxy)-2,2,4,4-tetramethylcyclobutyl)-6-(4-(2-(2-(((S)-1-((S)-4,4-difluoro-2-(((S)-1-(4-(4-methylthiazol-5-yl)phenyl)ethyl)carbam-oyl)pyrrolidin-1-yl)-3,3-dimethyl-1-oxobutan-2-yl)amino)-2-oxoethoxy)ethyl)pipera-zin-1-yl)nicotinamide]

DC50 [1]: < 50 nM
Dmax [2]: > 71%
Structure (SMILES): Cc1ncsc1-c1ccc([C@H](C)NC(=O)C2C[C@@H](O)CN2C(=O)[C@@H](NC(=O)COCCN2C[C@@H](C)N(c3ccc(C(=O)N[C@H]4C(C)(C)[C@H](Oc5ccc(C#N)c(Cl)c5)C4(C)C)cn3)[C@@H](C)C2)C(C)(C)C)cc1 (stereo partly drawn) [Example 813, N-((1r,3R)-3-(3-chloro-4-cyanophenoxy)-2,2,4,4-tetramethylcyclobutyl)-6-((2S,6R)-4-(2-(2-(((2S)-1-((4R)-4-hydroxy-2-(((S)-1-(4-(4-methylthiazol-5-yl)phenyl)ethyl)carbamoyl)pyrrolidin-1-yl)-3,3-dimethyl-1-oxobutan-2-yl)amino)-2-oxoethoxy)ethyl)-2,6-dimethylpiperazin-1-yl)nicotinamide]

DC50 [1]: < 50 nM
Dmax [2]: > 71%
Structure (SMILES): Cc1ncsc1-c1ccc([C@H](C)NC(=O)[C@@H]2C[C@@H](O)CN2C(=O)[C@@H](NC(=O)CN2CCN(CCCc3ccc(C(=O)N[C@H]4C(C)(C)[C@H](Oc5ccc(C#N)c(Cl)c5)C4(C)C)cc3)CC2)C(C)(C)C)cc1 [Example 783, (2S,4R)-1-((S)-2-(2-(4-(3-(4-(((1r,3r)-3-(3-chloro-4-cyanophenoxy)-2,2,4,4-tetramethylcyclobutyl)carbamoyl)phenyl)propyl)piperazin-1-yl)acetamido)-3,3-dimethylbutanoyl)-4-hydroxy-N-((S)-1-(4-(4-methylthiazol-5-yl)phenyl)ethyl)pyrrolidine-2-carboxamide]

DC50 [4]: 51 to 500 nM
Dmax [5]: 26 to 50%
Structure (SMILES): CC(C)(C)[C@H](NC(=O)COCCCCCNc1ccc(C(=O)N[C@H]2C(C)(C)[C@H](Oc3ccc(C#N)c(Cl)c3)C2(C)C)cc1)C(=O)N1C[C@H](O)C[C@H]1C(=O)NCc1ccc(-c2scnc2C(=O)O)cc1 [Example 502]

DC50 [4]: < 50 nM
Dmax [5]: 51 to 70%
Structure (SMILES): CC(C)(C)[C@H](NC(=O)COCCCCCNc1ccc(C(=O)N[C@H]2C(C)(C)[C@H](Oc3ccc(C#N)c(Cl)c3)C2(C)C)cc1)C(=O)N1C[C@H](O)C[C@H]1C(=O)NCc1ccc(C#N)nc1 [Example 523]

DC50 [4]: < 50 nM
Dmax [5]: > 71%
Structure (SMILES): C[C@H](NC(=O)[C@@H]1C[C@@H](O)CN1C(=O)[C@@H](NC(=O)COCCOc1ccc(-c2ccc(C(=O)N[C@H]3C(C)(C)[C@H](Oc4ccc(C#N)c(Cl)c4)C3(C)C)cc2)cc1)C(C)(C)C)c1ccc(C#N)cc1 [Example 549]

DC50 [4]: < 50 nM
Dmax [5]: 26 to 50%
Structure (SMILES): Cc1ncsc1-c1ccc([C@@H](CN)NC(=O)[C@@H]2C[C@@H](O)CN2C(=O)[C@@H](NC(=O)COCCCCCOc2ccc(C(=O)N[C@H]3C(C)(C)[C@H](Oc4ccc(C#N)c(Cl)c4)C3(C)C)cc2)C(C)(C)C)cc1 [Example 474]

Dmax [6]: > 71%
DC50 [7]: < 50 nM
Structure (SMILES): Cc1ncoc1-c1ccc(CNC(=O)[C@@H]2C[C@@H](O)CN2C(=O)[C@@H](NC(=O)COCCCCCNc2ccc(C(=O)N[C@H]3C(C)(C)[C@H](Oc4ccc(C#N)c(Cl)c4)C3(C)C)cc2)C(C)(C)C)cc1 [Example 173, (2S,4R)-1-[(2S)-3,3-dimethyl-2-[2-({5-[(4-{[trans-3-(3-chloro-4-cyanophenoxy)-2,2,4,4-tetramethylcyclobutyl]carbamoyl}phenyl)amino]pentyl}oxy)acetamido]butanoyl]-4-hydroxy-N-{[4-(4-methyl-1,3-oxazol-5-yl)phenyl]methyl}pyrrolidine-2-carboxamide]

DC50 [1]: > 501 nM
Dmax (VCaP, read-out: VCaP Dmax (%), VCaP cells; Table 36): < 25%
Structure (SMILES): Cc1ncsc1-c1ccc([C@H](C)NC(=O)[C@@H]2C[C@@H](F)CN2C(=O)[C@@H](NC(=O)COCCN2CCN(c3ccc(C(=O)N[C@H]4C(C)(C)[C@H](Oc5ccc(C#N)c(Cl)c5)C4(C)C)cn3)CC2)C(C)(C)C)cc1 [Example 720, N-((1r,3r)-3-(3-chloro-4-cyanophenoxy)-2,2,4,4-tetramethylcyclobutyl)-6-(4-(2-(2-(((S)-1-((2S,4R)-4-fluoro-2-(((S)-1-(4-(4-methylthiazol-5-yl)phenyl)ethyl)carbam-oyl)pyrrolidin-1-yl)-3,3-dimethyl-1-oxobutan-2-yl)amino)-2-oxoethoxy)ethyl)pipera-zin-1-yl)nicotinamide]

Continued, compound first:

Structure (SMILES): Cc1ncoc1-c1ccc([C@H](C)NC(=O)[C@@H]2C[C@@H](O)CN2C(=O)[C@@H](NC(=O)COCCCCOc2ccc(-c3ccc(N4C(=S)N(c5ccc(C#N)c(C(F)(F)F)c5)C(=O)C4(C)C)c(F)c3)cc2)C(C)(C)C)cc1 [Example 138, (2S,4R)-1-[(2S)-2-(2-{4-[4-(4-{3-[4-cyano-3-(trifluoromethyl)phenyl]-5,5-dimethyl-4-oxo-2-sulfanylideneimidazolidin-1-yl}-3-fluorophenyl)phen-oxy]butoxy}acetamido)-3,3-dimethylbutanoyl]-4-hydroxy-N-[(1S)-1-[4-(4-methyl-1,3-oxazol-5-yl)phenyl]ethyl]pyrrolidine-2-carboxamide]
Dmax (VCaP, read-out: VCaP Dmax (%)): > 71%
DC50 (read-out: VCaP DC50; concentration that caused 50% Androgen Receptor degradation, VCaP cells (Table 32)): < 50 nM

Structure (SMILES): Cc1ncsc1-c1ccc([C@H](C)NC(=O)C2C[C@@H](O)CN2C(=O)C(NC(=O)CN2C3CCC2CN(CCCCc2ccc(C(=O)N[C@H]4C(C)(C)[C@H](Oc5ccc(C#N)c(Cl)c5)C4(C)C)cn2)C3)C(C)(C)C)cc1 (stereo partly drawn) [Example 840, N-((1r,3r)-3-(3-chloro-4-cyanophenoxy)-2,2,4,4-tetramethylcyclobutyl)-6-(4-(8-(2-(((S)-1-((2S, 4R)-4-hydroxy-2-(((S)-1-(4-(4-methylthiazol-5-yl)phenyl)ethyl)carbamoyl)pyrrolidin-1-yl)-3,3-dimethyl-1-oxobutan-2-yl)amino)-2-oxoethyl)-3,8-diazabicyclo[3.2.1]octan-3-yl)butyl) nicotinamide]
Dmax (VCaP, read-out: VCaP Dmax (%)): > 71%
DC50 [3]: < 50 nM

Structure (SMILES): Cc1ncsc1-c1ccc(CNC(=O)[C@@H]2C[C@@H](O)CN2C(=O)C(C(C)C)n2cc(Oc3cccc(OCCCCCOc4ccc(N5C(=S)N(c6ccc(C#N)c(C(F)(F)F)c6)C(=O)C5(C)C)cc4)c3)cn2)cc1 (stereo in doubt) [Example 602, (2S,4R)-1-((R)-2-(4-(3-((5-(4-(3-(4-cyano-3-(trifluoromethyl)phenyl)-5,5-dimethyl-4-oxo-2-thioxoimidazolidin-1-yl)phenoxy)pentyl)oxy)phenoxy)-1H-pyrazol-1-yl)-3-methylbutanoyl)-4-hydroxy-N-(4-(4-methylthiazol-5-yl)benzyl)pyrrolidine-2-carboxamide]
DC50 [3]: > 501 nM

Structure (SMILES): Cc1ncsc1-c1ccc([C@H](C)NC(=O)[C@@H]2C[C@@H](O)CN2C(=O)[C@H](C(C)C)n2cc(OCCCOCCCCCOc3ccc(N4C(=S)N(c5ccc(C#N)c(C(F)(F)F)c5)C(=O)C4(C)C)cc3)cn2)nc1 [Example 428]
Dmax (VCaP, read-out: VCaP Dmax (%)): < 25%
DC50 (read-out: VCaP DC50; VCaP cells; Table 35): > 501 nM

Structure (SMILES): Cc1ncoc1-c1ccc([C@H](C)NC(=O)[C@@H]2C[C@@H](O)CN2C(=O)[C@@H](NC(=O)COCCCCOc2ccc(C(=O)N[C@H]3C(C)(C)[C@H](Oc4ccc(C#N)c(Cl)c4)C3(C)C)cc2)C(C)(C)C)cc1 [Example 168, (2S,4R)-1-[(2S)-3,3-dimethyl-2-{2-[4-(4-{[trans-3-(3-chloro-4-cyanophenoxy)-2,2,4,4-tetramethylcyclobutyl]carbamoyl}phenoxy)butoxy]acetamido}butanoyl]-4-hydroxy-N-[(1S)-1-[4-(4-methyl-1,3-oxazol-5-yl)phenyl]ethyl]pyrrolidine-2-carboxamide]
Dmax [6]: > 71%
DC50 [7]: < 50 nM

Structure (SMILES): Cc1ncsc1-c1ccc(CNC(=O)[C@@H]2C[C@@H](O)CN2C(=O)[C@H](C(C)C)N2CC(OCCCOCCCOc3ccc(N4C(=S)N(c5ccc(C#N)c(C(F)(F)F)c5)C(=O)C4(C)C)cc3)=CC2=O)cc1 [Example 329]
Dmax (VCaP, read-out: VCaP Dmax (%)): 26 to 50%
DC50 (read-out: VCaP DC50; VCaP cells; Table 34): < 50 nM

Reference: patent US11427548B2 (Arvinas Operations, Inc., priority 2015, dated 2022)
